Source: patent publication US20120028985A1, “COMBINATIONAL THERAPY FOR TREATING AUTOIMMUNE DISEASE” (4SC AG, priority 2008, published 2012)
Where “and” joins values, the source holds several entries; their conditions need not be identical. Identical values can stand only once.

What was measured:
Beagle dogs [1] = experiment: 13-week repeat dose toxicity in Beagle dogs, combination with methotrexate: clinical biochemistry (ALAT, ASAT); format: in vivo; details: for ALAT, change as compared to the control group 1 / ASAT, change as compared to the control group 1: 25 mg Formula (II)/kg/day and/or 10/2.5 mg MTX/kg/week, p.o.
Method: For laboratory examinations blood samples were taken from the vena cephalica or vena saphena magna from animals fasted overnight. Serum samples were collected into tubes for biochemical tests. Clinical biochemistry parameters from venous blood were determined at the times listed below:
Prior to study start: all animals of a pool of 52 dogs […]
At the end of the recovery period: all 8 recovery animals included in this study
Clinical biochemistry parameters (e.g. bile acids, alanine aminotransferase=ALAT, alkaline phosphatise=aP, aspartate aminotransferase=ASAT, gamma-glutamyl-transferase=Gamma-GT, glutamate dehydrogenase=GLDH, creatine kinase=CK) were measured using KONELAB 30i instrument (Thermo Fisher Scientific, 63303 Dreieich, Germany) as U/L (unit/liter) serum.

Beagle dogs [2] = details: Beagle dogs, 13 weeks oral
Excerpt: The animals were randomly allocated to five test groups employing a pseudo-random body weight stratification procedure that yielded groups with approximately equal mean body weights. […] A special focus of the study was to study the influence of the combination treatment on liver toxicity.

[3] = Toxicokinetics of formula (II) and methotrexate after individual and concomitant administration to Beagle dogs; format: in vivo; details: for AUC(0-inf) / Cmax / half-life: mean
DBA1/J mice = experiment: Collagen Induced Arthritis in Mice, Arthritic Index (AI); format: in vivo; details: po once daily, MTX 2.5 mg/kg, Formula (II) 50 mg/kg; for Average Arthritic Index, Mean: group mean
Method: Collagen Induced Arthritis in Mice
Bovine Type II collagen solution is prepared by dissolving at 4 mg/ml in 0.01 M acetic acid at 4-8° C. with stirring overnight. Immunogen is prepared by emulsifying a 1:1 vol:vol combination of collagen solution and Complete Freund's Adjuvant (CFA) (M. tuberculosis H37Ra suspension: 4 mg/ml).
DBA1/J mice (male, 7-8 weeks) are weighed. The animals are anesthetized, injected subcutaneously into the shaved base of the tail with collagen/CFA (0.050 ml/mouse; 100 microgram/mouse collagen in CFA) using a 1 ml syringe fitted with a 25 G needle and returned to the cages.
After three weeks (21 d) the procedure is repeated, though now with incomplete Freund's adjuvant (IFA) instead of CFA.
Animals are observed for one week and macroscopic signs of arthritis are scored 3-times weekly (Monday, Wednesday, Friday: M, W, F). Each paw receives a score: • a) 0=no visible effects of arthritis; • b) 1=edema and/or erythema of 1 digit; • c) 2=edema and/or erythema of 2 digits; • d) 3=edema and/or erythema of more than 2 digits; • e) 4=severe arthritis of entire paw and digits.
Calculate Arthritic Index (AI) by addition of individual paw scores and record. (Maximum AI=16)
After one week, mice are allocated to groups (10 mice per group) to give similar mean AI values and similar ranges of individual AI values in each treatment group.
Dosing is started, PO (per oral) once daily for 14 days.
AI scores determined 3× weekly.

[4] = female, Beagle, dog, plasma, po, 10 mg/kg, Group 4 (+MTX), formula (II) 10 mg/kg, day 1, female Beagle dogs
[5] = female, Beagle, dog, plasma, po, 10 mg/kg, Group 4 (+MTX), formula (II) 10 mg/kg, week 13, female Beagle dogs
[6] = female, Beagle, dog, plasma, po, 25 mg/kg, Group 2, formula (II) 25 mg/kg alone, day 1, female Beagle dogs
[7] = female, Beagle, dog, plasma, po, 25 mg/kg, Group 2, formula (II) 25 mg/kg alone, week 13, female Beagle dogs
[8] = female, Beagle, dog, plasma, po, 25 mg/kg, Group 5 (+MTX), formula (II) 25 mg/kg, day 1, female Beagle dogs
[9] = female, Beagle, dog, plasma, po, 25 mg/kg, Group 5 (+MTX), formula (II) 25 mg/kg, week 13, female Beagle dogs
[10] = male, Beagle, dog, plasma, po, 10 mg/kg, Group 4 (+MTX), formula (II) 10 mg/kg, day 1, male Beagle dogs
[11] = male, Beagle, dog, plasma, po, 10 mg/kg, Group 4 (+MTX), formula (II) 10 mg/kg, week 13, male Beagle dogs
[12] = male, Beagle, dog, plasma, po, 25 mg/kg, Group 2, formula (II) 25 mg/kg alone, day 1, male Beagle dogs
[13] = male, Beagle, dog, plasma, po, 25 mg/kg, Group 2, formula (II) 25 mg/kg alone, week 13, male Beagle dogs
[14] = male, Beagle, dog, plasma, po, 25 mg/kg, Group 5 (+MTX), formula (II) 25 mg/kg, day 1, male Beagle dogs
[15] = male, Beagle, dog, plasma, po, 25 mg/kg, Group 5 (+MTX), formula (II) 25 mg/kg, week 13, male Beagle dogs

Question: With `COc1cccc(-c2ccc(NC(=O)C3=C(C(=O)O)CCC3)c(F)c2)c1` [Formula (II)] as the molecule, how does the “Changes in the biochemical parameters” value (Beagle dogs [1]; Beagle dogs, 13 weeks oral, serum) read?
Answer: Its value is “slight increased enzyme activities of ALAT, ASAT and GLDH as well as slight increases of the bile acid concentration in serum”.

Question: And the “ALAT, change as compared to the control group 1” value (shortened to “ALAT, change”) (Beagle dogs [1]; Test day 37, females)?
Answer: Its value is “None”.

Question: What about the “ASAT, change as compared to the control group 1” value (“ASAT, change” below) (Beagle dogs [1]; Test day 37, females) of the same molecule?
Answer: The value was “None”.

Question: And the “ALAT, change” value (Beagle dogs [1]; Test day 37, males)?
Answer: The value was “none”.

Question: And the “ASAT, change” value (Beagle dogs [1]; Test day 37, males)?
Answer: The value was “none”.

Question: What about the “ALAT, change” value (Beagle dogs [1]; Test day 93, females) of the same molecule?
Answer: The value was “None”.

Question: And the “ASAT, change” value (Beagle dogs [1]; Test day 93, females)?
Answer: Its value is “None”.

Question: What about the “ALAT, change” value (Beagle dogs [1]; Test day 93, males) of the same molecule?
Answer: Its value is “None”.

Question: And the “ASAT, change” value (Beagle dogs [1]; Test day 93, males)?
Answer: The value was “None”.

Question: What about the “Influence on body weight, food and drinking water consumption and haematological parameters” value (Beagle dogs [2]) of the same molecule?
Answer: Its value is “no influence”.

Question: And the “Toxicokinetic findings (plasma levels, interaction)” value ([3]; Beagle dogs, test day 1 and 85)?
Answer: Its value is “clear dose response relationship”.

Question: And the AUC(0-t) ([3]; female, Beagle, dog, plasma, po, 10 mg/kg)?
Answer: The AUC(0-t) was 598 µg·h/mL.

Question: And the AUC(0-inf) [3, 4]?
Answer: Its AUC(0-inf) is 513 µg·h/mL.

Question: What about the Cmax [3, 4] of the same molecule?
Answer: The Cmax was 43000 ng/mL.

Question: What about the half-life [3, 4] of the same molecule?
Answer: The half-life was 444 min.

Question: And the Cmax [3, 5]?
Answer: The Cmax was 40500 ng/mL.

Question: What about the half-life [3, 5] of the same molecule?
Answer: The half-life was 1600 min.

Question: What about the AUC(0-inf) [3, 6] of the same molecule?
Answer: Its AUC(0-inf) is 773 µg·h/mL.

Question: What about the Cmax [3, 6] of the same molecule?
Answer: Its Cmax is 56300 ng/mL.

Question: And the half-life [3, 6]?
Answer: Its half-life is 516 min.

Question: And the AUC(0-inf) [3, 7]?
Answer: Its AUC(0-inf) is 1010 µg·h/mL.

Question: What about the Cmax [3, 7] of the same molecule?
Answer: The Cmax was 66600 ng/mL.

Question: And the half-life [3, 7]?
Answer: Its half-life is 666 min.

Question: What about the AUC(0-inf) [3, 8] of the same molecule?
Answer: Its AUC(0-inf) is 413 µg·h/mL.

Question: What about the Cmax [3, 8] of the same molecule?
Answer: The Cmax was 33100 ng/mL.

Question: And the half-life [3, 8]?
Answer: The half-life was 456 min.

Question: And the AUC(0-inf) [3, 9]?
Answer: The AUC(0-inf) was 1190 µg·h/mL.

Question: What about the Cmax [3, 9] of the same molecule?
Answer: Its Cmax is 76300 ng/mL.

Question: What about the half-life [3, 9] of the same molecule?
Answer: The half-life was 486 min.

Question: What about the AUC(0-inf) [3, 10] of the same molecule?
Answer: Its AUC(0-inf) is 322 µg·h/mL.

Question: What about the Cmax [3, 10] of the same molecule?
Answer: Its Cmax is 30300 ng/mL.

Question: And the half-life [3, 10]?
Answer: The half-life was 378 min.

Question: And the AUC(0-inf) [3, 11]?
Answer: Its AUC(0-inf) is 371 µg·h/mL.

Question: What about the Cmax [3, 11] of the same molecule?
Answer: The Cmax was 35700 ng/mL.

Question: And the half-life [3, 11]?
Answer: Its half-life is 378 min.

Question: What about the AUC(0-inf) [3, 12] of the same molecule?
Answer: Its AUC(0-inf) is 289 µg·h/mL.

Question: What about the Cmax [3, 12] of the same molecule?
Answer: Its Cmax is 22700 ng/mL.

Question: What about the half-life [3, 12] of the same molecule?
Answer: The half-life was 468 min.

Question: And the AUC(0-inf) [3, 13]?
Answer: The AUC(0-inf) was 601 µg·h/mL.

Question: And the Cmax [3, 13]?
Answer: Its Cmax is 56900 ng/mL.

Question: What about the half-life [3, 13] of the same molecule?
Answer: Its half-life is 366 min.

Question: And the AUC(0-inf) [3, 14]?
Answer: The AUC(0-inf) was 858 µg·h/mL.

Question: And the Cmax [3, 14]?
Answer: Its Cmax is 60000 ng/mL.

Question: And the half-life [3, 14]?
Answer: The half-life was 504 min.

Question: What about the AUC(0-inf) [3, 15] of the same molecule?
Answer: Its AUC(0-inf) is 659 µg·h/mL.

Question: And the Cmax [3, 15]?
Answer: Its Cmax is 53600 ng/mL.

Question: And the half-life [3, 15]?
Answer: Its half-life is 474 min.

Question: What about the “Average Arthritic Index, Mean” value (DBA1/J mice; study day 22) of the same molecule?
Answer: The value was 0.

Question: And the “Arthritic Index (individual mouse)” value (DBA1/J mice; study day 22)?
Answer: The value was 0.

Question: And the “Average Arthritic Index, Mean” value (DBA1/J mice; study day 23)?
Answer: Its value is 0.

Question: And the “Arthritic Index (individual mouse)” value (DBA1/J mice; study day 23)?
Answer: Its value is 0.

Question: And the “Average Arthritic Index, Mean” value (DBA1/J mice; study day 24)?
Answer: The value was 0.

Question: What about the “Arthritic Index (individual mouse)” value (DBA1/J mice; study day 24) of the same molecule?
Answer: Its value is 0.

Question: And the “Average Arthritic Index, Mean” value (DBA1/J mice; study day 25)?
Answer: Its value is 0.

Question: What about the “Arthritic Index (individual mouse)” value (DBA1/J mice; study day 25) of the same molecule?
Answer: The value was 0.

Question: What about the “Average Arthritic Index, Mean” value (DBA1/J mice; study day 26) of the same molecule?
Answer: Its value is 0.

Question: What about the “Arthritic Index (individual mouse)” value (DBA1/J mice; study day 26) of the same molecule?
Answer: The value was 0.

Question: What about the “Average Arthritic Index, Mean” value (DBA1/J mice; study day 27) of the same molecule?
Answer: Its value is 0.

Question: And the “Arthritic Index (individual mouse)” value (DBA1/J mice; study day 27)?
Answer: The value was 0.

Question: And the “Average Arthritic Index, Mean” value (DBA1/J mice; study day 28)?
Answer: The value was 0.7.

Question: And the “Arthritic Index (individual mouse)” value (DBA1/J mice; study day 28)?
Answer: Its value is 1 (3×) and 0 (4×) and 2.

Question: And the “Average Arthritic Index, Mean” value (DBA1/J mice; study day 30)?
Answer: The value was 0.9.

Question: And the “Arthritic Index (individual mouse)” value (DBA1/J mice; study day 30)?
Answer: The value was 1 (4×) and 0 (3×) and 2 and 3.

Question: What about the “Average Arthritic Index, Mean” value (DBA1/J mice; study day 31) of the same molecule?
Answer: The value was 2.2.

Question: What about the “Arthritic Index (individual mouse)” value (DBA1/J mice; study day 31) of the same molecule?
Answer: The value was 2 (2×) and 3 (3×) and 1 (3×) and 4.

Question: And the “Average Arthritic Index, Mean” value (DBA1/J mice; study day 32)?
Answer: The value was 3.6.

Question: What about the “Average Arthritic Index, Mean” value (DBA1/J mice; study day 33) of the same molecule?
Answer: The value was 5.2.

Question: What about the “Arthritic Index (individual mouse)” value (DBA1/J mice; study day 33) of the same molecule?
Answer: The value was 6 (2×) and 11 and 2 (2×) and 5 (3×) and 8.

Question: And the “Average Arthritic Index, Mean” value (DBA1/J mice; study day 35)?
Answer: Its value is 5.9.

Question: What about the “Arthritic Index (individual mouse)” value (DBA1/J mice; study day 35) of the same molecule?
Answer: Its value is 5 (2×) and 12 and 4 (3×) and 3 and 8.

Question: What about the “Average Arthritic Index, Mean” value (DBA1/J mice; study day 37) of the same molecule?
Answer: Its value is 6.9.

Question: And the “Average Arthritic Index, Mean” value (DBA1/J mice; study day 40)?
Answer: The value was 6.9.

Question: And the “Average Arthritic Index, Mean” value (DBA1/J mice; study day 42)?
Answer: Its value is 7.0.

Question: And the “Average Arthritic Index, Mean” value (DBA1/J mice; study day 44)?
Answer: The value was 7.1.

Question: And the “Average Arthritic Index, Mean” value (DBA1/J mice; study day 47)?
Answer: The value was 7.6.
